pIC50: −log10 of the molar value. Numbered stars: 1 amine (or outer) side, 2 acyl side, 3 side chain; on linkers, the order of the positions; unused ones are H or OH. Square brackets hold non-standard residues; d marks the D form. Peptide text beside a SMILES is read from it. * marks the point of attachment. X1 = CC[C@@]1(O)C(=O)OCc2c1cc1n(c2=O)Cc2c-1nc1cc(F)c(C)c3c1c2C(N*)CC3; Hexanoyl(6-maleimido) = O=C1C=CC(=O)N1CCCCCC(=O)*; NHCH2OCH2CO = O=C(COCN[*:1])[*:2]

In general, pIC50 refers to the IC50 on a negative log10 scale, so that one unit is a factor of ten.

One data set concerns NCI-N87 cell line. Nature of the data set: Killing activity on NCI-N87 before and after enzyme digestion by cathepsin B system. In kind it is cell-based. Particulars: NCI-N87, 144 hours, after cathepsin B system pH 5.0, 37° C., 4 hours; read-out: IC50 (based on SN-38 equivalent) After Enzyme Digestion. As for the experimental part: NCI-N87 cell line was selected as the experimental cell lines. After the sample was incubated in cathepsin B system (100 mM sodium acetate-acetic acid buffer, 4 mM dithiothreitol, pH 5.0) at 37° C. for 4 hours, the obtained sample was diluted with culture medium to different concentrations. 8 concentrations (1.5 to 10-fold dilution) were set from 70 nM to 0.003 nM of SN-38 concentration. […] The IC50 value was calculated by reading the […] data after chemical luminescent staining with CellTiter-Glo® Luminescent Cell Viability Assay.

The next data set concerns the target cathepsin B (Homo sapiens, UniProt P07858). Nature of the data set: In vitro enzyme digestion of linker-drug conjugates. In kind it is in vitro ADME. Particulars: pH 5.0 to 7.0. How it is done:
The linker-drug conjugate (LE14 and GGFG-Dxd) was co-incubated with cathepsin B in three different pH (5.0, 6.0, 7.0) buffers. Samples were taken at different time points and entered into a high-performance liquid chromatography-mass spectrometry instrument. The external standard method (with DXD as the external standard) was used to determine the release percentage of the drug.

Data set [1] in a line: Coupling of linker-drug conjugates with other/different antibodies. In kind it is physicochemical. Particulars: coupling with antibodies other than or including FDA016.

Regarding `CCc1c2c(nc3ccc(O)cc13)-c1cc3c(c(=O)n1C2)COC(=O)[C@]3(O)CC` [SN-38, 7-ethyl-10-hydroxycamptothecin], in the data set with NCI-N87 cell line, the pIC50 is 8.13.

Take `CC[C@@]1(O)C(=O)OCc2c1cc1n(c2=O)Cc2c-1nc1cc(F)c(C)c3c1c2C(NC(=O)COCNC(=O)CNC(=O)[C@H](Cc1ccccc1)NC(=O)CNC(=O)CNC(=O)CCCCCN1C(=O)C=CC1=O)CC3` (stereo partly shown) [GGFG-Dxd] ({Hexanoyl(6-maleimido)}-GGFG[NHCH2OCH2CO]-X1): the “Speed of enzyme digestion” value on cathepsin B is on record as “slow speed of enzyme digestion”. Besides, in data set [1], the “Aggregation ratio when coupled with other/different antibodies” value is “high aggregation ratio” and the “Precipitation when coupled with other/different antibodies” value is “produced precipitation”.

Values taken from patent US20240398970A1, “B7-H3 TARGETING ANTIBODY-DRUG CONJUGATE, AND PREPARATION METHOD THEREFOR AND USE THEREOF” (priority 2020, published 2024).
